The assay relates to Pal-mCherry accumulation at the septum. Put plainly: TIRFM of Pal-mCherry accumulation at the division septum. Particulars: dividing E. coli cells, mutant TolB; average of 30 cells. Type of assay: cell-based. As for the experimental part:
Overnight supplemented M9-glucose (2 mM MgSO4, 0.1 mM CaCl2, 0.4% (w/v) D-glucose) cultures were diluted in fresh medium with appropriate antibiotics and IPTG for strains expressing TolA from plasmids. Cultures were grown at 37 °C to OD600 0.3. Cells were centrifuged at 7000 × g for 1 min, resuspended in 1 ml of fresh media and treated with CCCP (0.1 mM, RT for 5 min, Sigma #C2759) for PMF decoupling, sodium azide (50 µg ml^−1, RT for 30 min, Sigma #S2002) for ATPase inhibition or chloramphenicol (30 µg ml^−1, 37 °C for 30 min, Sigma #C0378) for translation inhibition. […]
Live cells were imaged using an Oxford NanoImager (ONI) superresolution microscope equipped with four laser lines (405/473/561/640 nm) and ×100 oil immersion objective (Olympus 1.49 NA). Pal-mCherry fluorescence images were acquired by scanning a 50 µm × 80 µm area with a 561 nm laser (0.2 mW) set at 49° incidence angle (100 ms exposition), resulting in a 512 × 1024 pixel image. […] Images were recorded by NimOS software associated with the ONI instrument. If not noted otherwise, each image was acquired as a 100- or 200-frame stack for brightfield and fluorescence channels, respectively. […]
All images were analysed using ImageJ software. Fluorescence distribution along x-axis of cells was determined by the plot profile function with a line width of 4 points for TIRFM images and 40 or 80 for FRAP images. […]

In the case of “TolB^AAA: Alanine-substitution of three key hydrophobic residues in E. coli TolB (Ile25Ala, Val26Ala, Ile27Ala)”, the “Pal-mCherry accumulation at division sites” value is “abolishes Pal-mCherry accumulation at the septum”.
